One assay deals with erythropoietin. Kind of assay: Plasma EPO in mice after intravenous injection. The class given is in vivo, Swiss Webster mice. To be noted: mouse plasma, 20 mg/kg i.v., four hours after injection; for EPO: mouse EPO ELISA kit (**); for fold induction at 20 mg/kg: iv, 4 h, read-out: EPO Fold Increase. The protocol:
(§1) The effect of compounds of the present invention on expression of cytoprotective and neuroprotective factors in vivo was evaluated as follows. In one series of experiments, male Swiss Webster mice (29-34 g) were administered various compounds of the present invention via intravenous injection into the caudal tail vein. Animals treated by intravenous injection received a 6 ml/kg volume of either 5% Dextrose with an equimolar amount of NaOH or Meglumine (vehicle control) or 20 mg/kg of a compound of the present invention in 5% dextrose with an equimolar amount of NaOH or Meglumine. Four hours after injection, the animals were anesthetized and exsanguinated. Plasma samples were collected in EDTA and heparin coated microtainer tubes. Plasma samples were assayed for erythropoietin and VEGF using commercially-available ELISA kits purchased from R & D Systems (Minneapolis Minn.).
In general terms: An ELISA detects its analyte on a solid surface through an enzyme-linked reagent.

For assay [1], the system named is vascular endothelial growth factor (VEGF). Kind of assay: VEGF expression in Kelly neuroblastoma cells. The class given is cell-based. The following applies: for VEGF: conditioned media after overnight incubation. The method, then:
(§2) The effect of compounds of the present invention on expression of cytoprotective and neuroprotective factors in neuroblastoma cells was evaluated as follows. Kelly neuroblastoma cells (see, e.g., DSMZ, cat# ACC-355, Braunschweig Germany) were treated with various compounds of the present invention or 1% DMSO (negative control). Following an overnight incubation, the conditioned media was collected from cell cultures and analyzed for erythropoietin (EPO) and vascular endothelial growth factor (VEGF) expression using a QUANTIKINE immunoassay (R&D Systems, Inc., Minneapolis Minn.) according to the manufacturer's instructions.

The subject of assay [2] is C57BL/6 mice, permanent occlusion of the MCA. Kind of assay: Permanent middle cerebral artery occlusion (pMCAO) in C57BL/6 mice: infarct volume and edema. The following applies: Mus musculus, iv, 24 h, C57BL/6 mice pMCAO, 20-60 mg/kg i.v., compound given 4 hr after occlusion; 24 hours after MCA occlusion; read-out: Percent Reduction in Infarct Volume. It counts as in vivo. The method, then: The effect of compounds of the present invention on infarct volume and edema associated with stroke was examined in an animal model of ischemic stroke. In these studies, mice were subjected to permanent occlusion of the middle cerebral artery. Mice were anesthetized intraperitoneally with avertin (0.5 mg/g). Mice were then immobilized in a rodent stereotaxic frame (Kopf Instruments, Tujunga Calif.) and maintained with avertin as needed. The surgical area of the head was swabbed with 70% ethanol and a lateral incision was made between the right orbit and the right ear. […] The distal course of the middle cerebral artery (MCA) was visible through the translucent skull. A small burr-hole craniotomy was performed with a micro-drill (Fine Science Tools, Foster City Calif.). The meninges/dura was removed and the MCA was coagulated by bipolar diathermy. The muscle and soft tissue were replaced and the incision closed with vet-bond adhesive (3M, St. Paul Minn.). These studies were performed in two different mouse models of pMCAO as described below.
In one series of experiments, male C57BL/6 mice (25-35 g) were subjected to permanent occlusion of the MCA as described above. Compounds of the present invention were administered by intravenous injection at various times before or after MCA occlusion (see Table 7). Animals administered compound by intravenous injection received a 6 ml/kg volume of either 5% Dextrose with an equimolar amount of Meglumine (vehicle control) or 20-60 mg/kg of a compound of the present invention in 5% dextrose with an equimolar amount of Meglumine. Body temperature of the animals was maintained by use of a heating pad both during and after surgery. Twenty-four hours after MCA occlusion animals were euthanized with CO2 and their brains removed. After removal, the brain was sliced in 7 coronal sections, each 1 mm thick. The sections were placed rostral side down in a petri dish and stained with 1% Triphenyl tetrazolium chloride for 20 minutes at 37° C. for determination of infarct volume. Brain sections were then digitally photographed and analyzed for changes in infarct volume and extent of edema. Infarct volumes were determined by measuring the infarcted (i.e., non-stained) areas of each brain section and multiplying this value by the section thickness. Extent of edema was determined by the net increase in volume of the ipsilateral cortex compared to that of the contralateral cortex of brain sections.
The effect of compounds of the present invention administered at various times following the onset of stroke was examined further as follows. In these studies, changes in infarct volume were measured using an animal model of stroke when compounds of the present invention were administered from 0 to 8 hours following permanent MCA occlusion. In one series of experiments, male C57BL/6 mice (25-35 g) were subjected to permanent occlusion of the MCA as described above. Compound F was administered to the animals by a single intravenous bolus injection at various times up to 5 hours after MCA occlusion (see Table 8 below). Animals administered compound by intravenous injection received a 6 ml/kg volume of either 5% Dextrose with an equimolar amount of NaOH (vehicle control) or 60 mg/kg of Compound F in 5% dextrose with an equimolar amount of NaOH. Body temperature of the animals was maintained by use of a heating pad both during and after surgery. Changes in infarct volumes were determined as described above.
In another set of experiments, male C57BL/6 mice (25-35 g) were subjected to permanent occlusion of the MCA as described above. Compound F was administered by single intravenous bolus injection at various times up to 8 hours after MCA occlusion (see Table 9 below). Animals administered compound by intravenous injection received a 6 ml/kg volume of either 5% Dextrose with an equimolar amount of Meglumine (vehicle control) or 60 mg/kg of Compound F in 5% dextrose with an equimolar amount of Meglumine. […]

Assay [3] deals with erythropoietin (EPO). The experiment in a line: EPO expression in Kelly neuroblastoma cells. The class given is cell-based. The following applies: for EPO: conditioned media after overnight incubation. The method, then:
as §2

Another assay deals with VEGF. The experiment in a line: Plasma VEGF in mice after intravenous injection. It counts as in vivo, Swiss Webster mice. To be noted: mouse plasma, 20 mg/kg i.v., four hours after injection; for fold induction at 20 mg/kg: iv, 4 h, read-out: VEGF Fold Increase. The method, then:
as §1

In assay [4] the test system is erythropoietin (EPO). The experiment in a line: EPO expression in Hep3B cells (QUANTIKINE immunoassay of conditioned media). It counts as cell-based, Human. To be noted: for Fold Increase Over Control: EPO, vs 1% DMSO control; for EPO: conditioned media after overnight incubation with compound. The protocol:
The effect of compounds of the present invention on expression of cytoprotective and neuroprotective factors in cells was evaluated as follows. Human cells derived from hepatocarcinoma (Hep3B) tissue (see, e.g., American Type Culture Collection, Manassas Va.) were seeded into 35 mm culture dishes and grown at 37° C., 20% O2, 5% CO2 in Minimal Essential Medium (MEM), Earle's balanced salt solution (Mediatech Inc., Herndon Va.), 2 mM L-glutamine, 0.1 mM non-essential amino acids, 1 mM sodium pyruvate, and 10% FBS. When cell layers reached confluence, the media was replaced with OPTI-MEM media (Invitrogen Life Technologies, Carlsbad Calif.) and cell layers were incubated for approximately 24 hours in 20% O2, 5% CO2 at 37° C. Various compounds of the present invention or 1% DMSO (negative control) were then added to existing media and incubation was continued overnight.
Following incubation, the conditioned media was collected from cell cultures and analyzed for erythropoietin (EPO) expression using a QUANTIKINE immunoassay (R&D Systems, Inc., Minneapolis Minn.) according to the manufacturer's instructions.

The compound `O=C(O)CNC(=O)c1nc(Br)c2ccsc2c1O` [Compound AE, [(4-Bromo-7-hydroxy-thieno[3,2-c]pyridine-6-carbonyl)-amino]-acetic acid] yielded an EPO in the assay with erythropoietin of 3825 pg/mL. For the same compound, in assay [1], the “VEGF Fold Increase” value is reported as 2.7 and the VEGF is 3710.0 pg/mL. Further, the inhibition in vivo at up to 20 mg/kg in assay [2] amounted to 63%. Also, in the assay with erythropoietin (EPO) [3], the “EPO Fold Increase” value is 3.6 and the EPO stood at 95.5 mIU/ml. Moreover, in the assay on VEGF, the fold induction at 20 mg/kg is 1.45 and the VEGF was 29 pg/mL. In the assay with erythropoietin (EPO) [4], the “Fold Increase Over Control” value is reported as 3.0 and the EPO is 12.6 mIU/ml.

In the case of `O=C(O)CNC(=O)c1nc(Br)c2cc(Br)sc2c1O` [Compound AD, [(2,4-Dibromo-7-hydroxy-thieno[3,2-c]pyridine-6-carbonyl)-amino]-acetic acid], in the assay on erythropoietin, the fold induction at 20 mg/kg worked out at 27.4 and the EPO worked out at 1997 pg/mL. For the same compound, in assay [1], the “VEGF Fold Increase” value is listed as 3.5 and the VEGF is 5123.0 pg/mL. Moreover, in the assay on erythropoietin (EPO) [3], the “EPO Fold Increase” value was 7.3 and the EPO stood at 138.2 mIU/ml. Also, in the assay with VEGF, the fold induction at 20 mg/kg stood at 2.54 and the VEGF was determined as 66 pg/mL. Also, in the assay on erythropoietin (EPO) [4], the “Fold Increase Over Control” value is recorded as 6.5 and the EPO worked out at 34.9 mIU/ml.

Turning to `O=C(O)CNC(=O)c1ncc2cc(Oc3ccccc3)sc2c1O` [Compound AG, [(7-Hydroxy-2-phenoxy-thieno[3,2-c]pyridine-6-carbonyl)-amino]-acetic acid], in the assay on erythropoietin, the fold induction at 20 mg/kg amounted to 1.91 and the EPO was 303 pg/mL. In assay [1], the “VEGF Fold Increase” value is on record as 5.9 and the VEGF was 8670 pg/mL. In addition, in the assay on erythropoietin (EPO) [3], the “EPO Fold Increase” value was found to be 14.44 and the EPO was 273 mIU/ml. In the assay on VEGF, the fold induction at 20 mg/kg came to 1.76 and the VEGF was 51 pg/mL. In the assay on erythropoietin (EPO) [4], the “Fold Increase Over Control” value was determined as 8.5 and the EPO amounted to 27.3 mIU/ml.

`N#Cc1nc(C(=O)NCC(=O)O)c(O)c2ccc(Cl)cc12` [Compound S, [(7-Chloro-1-cyano-4-hydroxy-isoquinoline-3-carbonyl)-amino]-acetic acid]: in the assay with erythropoietin, the fold induction at 20 mg/kg turned out to be 40.8 and the EPO came to 460.6 pg/mL. Moreover, in assay [1], the “VEGF Fold Increase” value is on record as 1.9 and the VEGF was 725 pg/mL. In the assay with erythropoietin (EPO) [3], the “EPO Fold Increase” value is given as 2.89 and the EPO worked out at 40.4 mIU/ml. Besides, in the assay with VEGF, the fold induction at 20 mg/kg is 0.68 and the VEGF was 15 pg/mL. For the same compound, in the assay on erythropoietin (EPO) [4], the “Fold Increase Over Control” value is given as 10.1 and the EPO is given as 12.5 mIU/ml.

Turning to `O=C(O)CNC(=O)c1nc2cc(Cl)ccc2c(I)c1O` [Compound T, [(7-Chloro-3-hydroxy-4-iodo-quinoline-2-carbonyl)-amino]acetic acid], in the assay with erythropoietin, the fold induction at 20 mg/kg was determined as 4.65 and the EPO came out at 498 pg/mL. In addition, in assay [1], the “VEGF Fold Increase” value turned out to be 5.6 and the VEGF worked out at 8159 pg/mL. Also, in the assay with erythropoietin (EPO) [3], the “EPO Fold Increase” value was determined as 15.83 and the EPO was 299.1 mIU/ml. Also, in the assay with VEGF, the fold induction at 20 mg/kg worked out at 1.24 and the VEGF was 31 pg/mL. Also, in the assay on erythropoietin (EPO) [4], the “Fold Increase Over Control” value is 49.3 and the EPO is given as 100.7 mIU/ml.

On to `O=C(O)CNC(=O)c1nc2cc(-c3ccc(Cl)cc3)sc2cc1O` [Compound Q, {[2-(4-Chloro-phenyl)-6-hydroxy-thieno[3,2-b]pyridine-5-carbonyl]-amino}-acetic acid], for which, in the assay on erythropoietin, the fold induction at 20 mg/kg stood at 1.61 and the EPO came out at 17.1 pg/mL. Also, in assay [1], the “VEGF Fold Increase” value worked out at 4.4 and the VEGF was 6369 pg/mL. Also, in the assay with erythropoietin (EPO) [3], the “EPO Fold Increase” value is 2.80 and the EPO was 52.9 mIU/ml. Further, in the assay with VEGF, the fold induction at 20 mg/kg stood at 1.28 and the VEGF worked out at 50 pg/mL. Besides, in the assay on erythropoietin (EPO) [4], the “Fold Increase Over Control” value was determined as 4.8 and the EPO is 37.1 mIU/ml.

Consider `N#Cc1nc(C(=O)NCC(=O)O)c(O)c2sccc12` [Compound AH, [(4-Cyano-7-hydroxy-thieno[3,2-c]pyridine-6-carbonyl)-amino]-acetic acid], for which, in the assay on erythropoietin, the fold induction at 20 mg/kg stood at 11.6 and the EPO was 1242 pg/mL. Moreover, in assay [1], the “VEGF Fold Increase” value worked out at 4.5 and the VEGF came out at 6590 pg/mL. Besides, in the assay with erythropoietin (EPO) [3], the “EPO Fold Increase” value was 11.95 and the EPO was determined as 225.8 mIU/ml. In the assay with VEGF, the fold induction at 20 mg/kg is 1.76 and the VEGF was 44 pg/mL. In the assay with erythropoietin (EPO) [4], the “Fold Increase Over Control” value stood at 7.1 and the EPO is recorded as 13.4 mIU/ml.

(Values after patent US9775902B2, “Compounds and methods for treatment of stroke” (FIBROGEN, INC, priority 2006, dated 2017).)
